According to patent US20240424147A1, “PHTHALOCYANINE-LOADED MICELLES FOR THE DIRECT VISUALIZATION OF TUMORS” (THE TRUSTEES OF THE UNIVERSITY OF PENNSYLVANIA, priority 2022, published 2024):

Assays:
[1] = Photothermal heating of micelles in water under 808 nm laser; assay type: physicochemical; settings: 808 nm laser 0.75 W/cm2, 10 min
From the text: FIGS. 1A-1H show the preparation, characterization and uses of the PC dye micelles according to the invention. […] Infrared thermal images of water and NiPC micelle solution under laser irradiation.
(§1) A total of twenty-eight phthalocyanine and nine naphthalocyanine dyes were loaded into polymeric micelles, composed of the amphiphilic diblock copolymer PEGPCL, via oil-in-water emulsions (FIGS. 16A, 16B, 16C). The nanoparticles were characterized by UV-absorption spectroscopy and dynamic light scattering. The photothermal heating potential and photothermal stability of nanoparticles were assessed by irradiating samples using an 808 nm laser for 10 minutes at 0.75 W. Photoacoustic imaging signal was assessed by loading micelles into a phantom submerged in water. The top 5 naphthalocyanines and top 4 phthalocyanines, based on PA and heating properties, were used for in vitro and in vivo studies. The cytotoxicity and photocytotoxicity of the various micelles were assessed with ovarian cancer ID8-luciferase cells and breast cancer 4T1 cells using an MTS cell proliferation assay.
Pc and Nc-loaded micelles (9.4 uM dye concentration) and controls (empty micelles and water) were prepared and then irradiated at 808 nm (0.75 W/cm2) continuously for 10 min; heating of each sample was measured as a function of time. (FIG. 21)

[2] = Photothermal stability, repeated heating and cooling cycles; assay type: physicochemical; settings: three 10-min heating/cooling cycles, 808 nm, 9.4 uM
Method: as §1
Various Pc and Nc-loaded micelles (9.4 uM) were heated multiple times, using a laser (0.75 W/cm2), in 10-min increments. (FIG. 22) The samples were allowed to cool to room temperature between successive rounds.

[3] = free dye; cited from earlier work
[4] = PCs nanoparticles retention study: dialysis against 20 mM sodium cholate; assay type: physicochemical; settings: 24 h, in words
Method: 100 μL of PCs nanoparticles was diluted in 3 mL of 20 mM sodium cholate solution. Dialysis was performed with dialysis tubing (12,000-14,000 MWCO, Fisher) into 500 mL of 20 mM sodium cholate buffer at room temperature. The buffer was changed after 4 hours. The absorbance of the solutions was recorded before and after (24 hours) dialysis to determine dye retention percentage. […] Methylene blue (MB) is the only water-soluble blue dye that is used in this study.
PCs nanoparticles were synthesized using amphiphilic diblock copolymer (PEG-PCL) (FIG. 1A, phthalocyanine dyes used in this study are shown in FIGS. 4A-4F, see methods in Example 1). Due to the hydrophobic nature of PCs, they tend to aggregate in the aqueous medium (intermolecular interaction (π-π stacking)). […] The size of nanoparticles was determined with dynamic light scattering (DLS). […] The release of the PCs from PCs loaded micelles was assessed in sodium cholate buffer by monitoring leakage of PCs dyes as a function of time. […]
100 μL of PCs nanoparticles was diluted in 3 mL of 20 mM sodium cholate solution. […] The absorbance of the solutions was recorded before and after (24 hours) dialysis to determine dye retention percentage.

[5] = system: 4T1 triple-negative breast flank tumors; experiment: Direct visualization of 4T1 flank tumors after injection of micelles (SBR by ImageJ); assay type: in vivo, BALB/c mice; settings: 10 mg/kg intravenous (retro-orbital), 24 h where stated
Method: Photographs were quantified using ImageJ. Normalized signal-to-background (SBR) measurements were made using the tumor (i.e., the intensity of the blue color) and its surrounding tissue as background after 24 h of PCs loaded micelles (10 mg/kg) and MB (10 mg/kg) intravenous (retro-orbital) injection (n=3).
To identify the PC-loaded micelle formulation that is best able to differentiate tumors from surrounding healthy tissues via direct visualization, BALB/c mice bearing syngeneic 4T1 triple-negative breast flank tumors were injected intravenously with the various micelle formulations (10 mg/kg based on the dye concentration, 24 h before evaluation). […] Normalized signal-to-background (SBR) measurements were calculated in ImageJ using the intensity of the blue color within the tumor and its surrounding tissue, respectively.
4T1 tumor cells (2×10^6 cells in 100 ul) were implanted in the right flank of BALB/c mice (aged 6 weeks). […]
To assess blue nanoparticle accumulation in the breast and spontaneous colorectal mice model, tumors were evaluated visually, and normalized signal-to-background (SBR) was quantitated for each tumor relative to the surrounding tissue by measuring the intensity of blue-green colors via ImageJ. […] Tissues were placed in microscope glass slides, imaged fluorescence in the Cy5 filter (excitation 628-40 nm, emission 692-40 nm), and analyzed via ImageJ. […]

heating ability after repeated irradiation [2]	release from the dialysis tubing [4]	Structure (SMILES)	PTT performance compared with other dyes [1]	clearance upon injection [3]	tumor contrast / dye accumulation by direct visualization [5]
		CCCCOc1c2c(c(OCCCC)c3ccccc13)-c1nc-2nc2[n-]c(nc3nc(nc4[n-]c(n1)c1c(OCCCC)c5ccccc5c(OCCCC)c41)-c1c-3c(OCCCC)c3ccccc3c1OCCCC)c1c(OCCCC)c3ccccc3c(OCCCC)c21.[Cu+2] [CuNc Octa, Copper(II) 5,9,14,18,23,27,32,36-octabutoxy-2,3-naphthalocyanine]	outperforms all previously tested Pc/Nc dyes for PTT		
lost its ability to heat		CC1(C)C(/C=C/C=C/C=C/C=C2\N(CCCCS(=O)(=O)O)c3ccc4ccccc4c3C2(C)C)=[N+](CCCCS(=O)(=O)[O-])c2ccc3ccccc3c21 [ICG, indocyanine green]		cleared within minutes upon injection	
	released entirely	CN(C)c1ccc2nc3ccc(=[N+](C)C)cc-3sc2c1 [MB, Methylene blue]		cleared within minutes upon injection	no accumulation was observed
